In patent publication US20160338977A1, “METHODS AND KITS FOR TREATING DEPRESSION” (Janssen Pharmaceutica NV, priority 2015, published 2016):

Tests used:
[1] = system: subjects with Treatment Resistant Depression (TRD); experiment: Treatment emergent adverse events (TEAE) in the subjects of Example 1
Excerpt: The treatment emergent adverse event (TEAE) side effects for the subjects of Example were obtained. See, Table 7.

[2] = system: subjects with Treatment Resistant Depression (TRD); experiment: Clinician Administered Dissociative States Scale (CADSS); type: in vivo, human; settings: post dose; intranasal
Experimental: The Clinician Administered Dissociative States Scale (CADSS) was measured prior to the start of each dose, at 40 minutes and at 2 hours post dose. The CADSS is used to assess treatment emergent dissociative symptoms and perceptual changes and the total score ranges from 0 to 92 with a higher score representing a more severe condition. […] See, FIG. 4.

[3] = system: NMDA receptor; settings: compared with the R-enantiomer (arketamine); cited from earlier work
[4] = system: subjects with Treatment Resistant Depression (TRD); experiment: MADRS total score, double-blind placebo-controlled intranasal induction study; type: in vivo, human; settings: for Mean Differences (SE) from placebo, MADRS total score: Day 8, data from both Periods 1 and 2; for Estimated Differences from placebo, MADRS total score: best fit sigmoidal Emax model; for Least Square Mean Difference from Placebo, MADRS total score: change from baseline to Day 8, ANCOVA LOCF
Excerpt: The subjects discussed in Examples 1 to 5 included adult men and women, 18 (or older if the minimum legal age of consent in the country in which the study is taking place is >18) to 64 years of age (inclusive), who meet diagnostic criteria for recurrent MDD or single-episode MDD, based upon clinical assessment.
This example was a 2-panel, doubly-randomized, double-blind, placebo-controlled, multicenter study. In both panels, each subject participated in a screening phase of up to 4 weeks and/or a double-blind treatment phase which includes two 1-week periods (Period 1 and Period 2).
Sixty-seven (67) subjects with Treatment Resistant Depression (TRD) were randomly assigned in a 3:1:1:1 ratio to 1 of the 4 treatment groups in Table 1.
All subjects self-administered the intranasal esketamine (28, 56, or 84 mg) or placebo on non-consecutive days. Each intranasal device contains 2 sprays and contain esketamine deliver 14 mg per spray, for a total of 28 mg per individual device (i.e., 2 sprays). […] Food was restricted for 8 hours before each administration of study drug and the drinking of fluids was restricted for at least 30 minutes before the first nasal spray.
In Period 2, 28 placebo subjects who were eligible for re-randomization at the end of Period 1 were randomly assigned to as noted in Table 1 in a 1:1:1:1 ratio. Subjects eligible for re-randomization had to have a QIDS-SR16 total score >11 at the end of Period 1. Central randomization was implemented in this study. Both randomizations were balanced using randomly permuted blocks and were stratified by study center. The randomization for Period 2 was also stratified by QIDS-SR16 score at the end of Period 1 (moderate=11-16; severe >16) Subjects who were randomly assigned to esketamine in Period 1 continued to receive esketamine in Period 2, while Period 1 placebo subjects with a QIDS-SR16 total score <11 continued with placebo in Period 2.
The Period 1 ITT analysis set consisted of all randomized subjects who received at least 1 dose of study medication during Period 1 and had both the baseline and at least one post baseline value for the primary endpoint measure, MADRS total score, within Period 1. The Period 2 ITT analysis set consisted of all Period 1 placebo subjects who were eligible for re-randomization (QIDS-SR16≧11 at end of Period 1), who actually got re-randomized into Period 2 and received at least 1 dose of study medication during Period 2, and had both the baseline and at least one post baseline MADRS total score within Period 2.
The MADRS consisted of 10 items that covered all of the core depressive symptoms (apparent sadness, reported sadness, inner tension, sleep, appetite, concentration, lassitude, interest level, pessimistic thoughts, and suicidal thoughts). Each item was scored from 0 (item is not present or is normal) to 6 (severe or continuous presence of the symptom). A total score (0 to 60) was calculated by summing the scores of all 10 items. A higher score represented a more severe condition. Sustained response (onset of clinical response) was defined as at least 50% improvement from baseline in the MADRS total score with an onset by Day 2 that was maintained to study Day 15. The primary efficacy endpoint was the change in MADRS total score from baseline to Day 8 in each period, with the analysis based on data combined across both periods. The primary efficacy analysis was performed on the intent-to-treat (ITT) analysis sets that were defined for each period, which included all randomized subjects who received at least 1 dose of study medication during that period and have both the baseline and at least one post baseline MADRS total score within that period. Significance was based on a one-sided alpha level of 0.05.
A separate ANCOVA model was performed on last observation carried forward (LOCF) data for each period. Changes from baseline in Period 1 were modeled with treatment as a factor and Period 1 baseline value as a covariate. […]

CN[C@]1(c2ccccc2Cl)CCCCC1=O.Cl [Esketamine, (S)-2-(2-chlorophenyl)-2-(methylamino)cyclohexanone hydrochloride]
Patients Experiencing on TEAE ([1]; Period 1, 28 mg intranasal): 73 | Patients Experiencing on TEAE ([1]; Period 1, 56 mg intranasal): 82 | Patients Experiencing on TEAE ([1]; Period 1, 84 mg intranasal): 83 | Patients Experiencing on TEAE ([1]; Period 2, 28 mg intranasal): 38 | Patients Experiencing on TEAE ([1]; Period 2, 56 mg intranasal): 78 | Patients Experiencing on TEAE ([1]; Period 2, 84 mg intranasal): 100 | subjects who experienced at least one TEAE ([1]; overall, esketamine in either Period 1 or Period 2): about 79% | time of peak of dissociative and perceptual change symptoms (CADSS) [2]: ≤ 40 min | time to resolution of dissociative and perceptual change symptoms (CADSS) [2]: ≤ 2 h | potency or affinity for the NMDA receptor [3]: higher potency or affinity | statistical comparison with placebo, dose response model, MADRS total score ([4]; 14 mg (model estimate, dose not studied), 90% CI included 0): not statistically different from placebo | Mean Differences (SE) from placebo, MADRS total score ([4]; 28 mg): −4.2 (2.09) | Estimated Differences from placebo, MADRS total score ([4]; 28 mg): −4.22 | statistical comparison with placebo, dose response model, MADRS total score ([4]; 28 mg, sigmoidal Emax model, 90% CI): statistically superior to placebo | Mean Differences (SE) from placebo, MADRS total score ([4]; 56 mg): −6.3 (2.07) | Estimated Differences from placebo, MADRS total score ([4]; 56 mg): −7.04 | statistical comparison with placebo, dose response model, MADRS total score ([4]; 56 mg, sigmoidal Emax model, 90% CI): statistically superior to placebo | Mean Differences (SE) from placebo, MADRS total score ([4]; 84 mg): −9.0 (2.13) | Estimated Differences from placebo, MADRS total score ([4]; 84 mg): −8.45 | statistical comparison with placebo, dose response model, MADRS total score ([4]; 84 mg, sigmoidal Emax model, 90% CI): statistically superior to placebo | Least Square Mean Difference from Placebo, MADRS total score ([4]; Period 1, 28 mg intranasal): −5.0 | Least Square Mean Difference from Placebo, MADRS total score ([4]; Period 1, 56 mg intranasal): −7.6 | Least Square Mean Difference from Placebo, MADRS total score ([4]; Period 1, 84 mg intranasal): −10.5 | Least Square Mean Difference from Placebo, MADRS total score ([4]; Period 2, 28 mg intranasal): −3.1 | Least Square Mean Difference from Placebo, MADRS total score ([4]; Period 2, 56 mg intranasal): −4.4 | Least Square Mean Difference from Placebo, MADRS total score ([4]; Period 2, 84 mg intranasal): −6.9 | statistical comparison with placebo, MADRS total score ([4]; all three groups (28, 56, 84 mg), Period 1 and Period 2 combined, weighted combination test, one-sided 0.05): statistically superior to placebo | Estimated Differences from placebo, MADRS total score ([4]; dose cell blank (14 mg per text, dose not studied)): −1.98
